# In PubChem BioAssay AID1195 (EPA DSSTox, 2008):
# System: human maximum recommended daily dose, FDA database
# Assay: DSSTox (FDAMDD) FDA Maximum (Recommended) Daily Dose Database
# Conditions: active compounds read low
# Method in brief: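 MRDD values come from clinical trials with daily oral dosing, usually for 3–12 months, for the average adult, in mg/day converted to mg/kg-bw/day assuming 60 kg. Antineoplastic mg/m2 doses are divided by 37. Activity score maps log10(1/MRDD mmol) onto 1–100.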
# [1] = TherapeuticCategory: sedative, hypnotic
# [2] = TherapeuticCategory: antibacterial
# [3] = TherapeuticCategory: diagnostic aid
# [4] = TherapeuticCategory: antineoplastic
# [5] = TherapeuticCategory: antihypertensive
smiles,measurement,setting,value
CCC1(CC)C(=O)NC(=O)NC1=O,maximum recommended daily dose (mmol/kg-bw/day),[1],0.0543
C[C@@H](N)[C@@H](O)c1ccccc1,maximum recommended daily dose (mmol/kg-bw/day),"TherapeuticCategory: decongestant, anorexic",0.0198
NC(N)=NS(=O)(=O)c1ccc(N)cc1,maximum recommended daily dose (mmol/kg-bw/day),[2],0.0934
Cc1nnc2n1-c1ccc(Cl)cc1C(c1ccccc1)=NC2,maximum recommended daily dose (mmol/kg-bw/day),TherapeuticCategory: anxiolytic,0.000541
CCC1(C)OC(=O)N(C)C1=O (configuration not stated),maximum recommended daily dose (mmol/kg-bw/day),TherapeuticCategory: anticonvulsant,0.255
CCC(=O)c1ccc(O)cc1,maximum recommended daily dose (mmol/kg-bw/day),TherapeuticCategory: pituitary gonadotrophic hormone inhibitor,0.333
CC(C)(C)c1ccc(C(O)CCCN2CCC(C(O)(c3ccccc3)c3ccccc3)CC2)cc1 (configuration not stated),maximum recommended daily dose (mmol/kg-bw/day),TherapeuticCategory: antihistaminic,0.00424
O=C(O)Cn1cc(I)c(=O)c(I)c1,maximum recommended daily dose (mmol/kg-bw/day),[3],0.196
COc1cccc2c1C(=O)c1c(O)c3c(c(O)c1C2=O)C[C@@](O)(C(C)=O)C[C@@H]3O[C@H]1C[C@H](N)[C@H](O)[C@H](C)O1,maximum recommended daily dose (mmol/kg-bw/day),[4],0.00205
CCCCC(=O)O[C@H]1CC[C@H]2[C@@H]3CCc4cc(O)ccc4[C@H]3CC[C@]12C,maximum recommended daily dose (mmol/kg-bw/day),TherapeuticCategory: estrogen,0.0014
C#C[C@]1(O)CC[C@H]2[C@@H]3CCC4=CC(=O)CC[C@@H]4[C@H]3CC[C@@]21C,maximum recommended daily dose (mmol/kg-bw/day),TherapeuticCategory: progestogen,5.6e-05
C[C@H]1O[C@@H](O[C@H]2[C@@H](O)C[C@H](O[C@H]3[C@@H](O)C[C@H](O[C@H]4CC[C@@]5(C)[C@H](CC[C@@H]6[C@@H]5C[C@@H](O)[C@]5(C)[C@@H](C7=CC(=O)OC7)CC[C@]65O)C4)O[C@@H]3C)O[C@@H]2C)C[C@H](O)[C@@H]1O,maximum recommended daily dose (mmol/kg-bw/day),TherapeuticCategory: cardiotonic,1.28e-08
CCOc1nc2cccc(C(=O)O)c2n1Cc1ccc(-c2ccccc2-c2nn[nH]n2)cc1,maximum recommended daily dose (mmol/kg-bw/day),[5],0.000606
O=C(O)c1ccccc1C(=O)Nc1ccc(S(=O)(=O)Nc2nccs2)cc1,maximum recommended daily dose (mmol/kg-bw/day),[2],0.496
CN[C@@H]1[C@H](O)[C@H](NC)[C@H]2O[C@@]3(O)C(=O)C[C@@H](C)O[C@H]3O[C@@H]2[C@H]1O,maximum recommended daily dose (mmol/kg-bw/day),[2],0.201
CCOC(=O)Oc1c(OC)cc(C(=O)O[C@@H]2C[C@@H]3CN4CCc5c([nH]c6cc(OC)ccc56)[C@H]4C[C@@H]3[C@H](C(=O)OC)[C@H]2OC)cc1OC,maximum recommended daily dose (mmol/kg-bw/day),[5],7.5e-05
CCCSc1ccc2nc(NC(=O)OC)[nH]c2c1,maximum recommended daily dose (mmol/kg-bw/day),TherapeuticCategory: anthelmintic,0.0501
Oc1c(Cl)cc(Cl)c2cccnc12,maximum recommended daily dose (mmol/kg-bw/day),TherapeuticCategory: antiseborrhetic,0.312
CC(=O)Nc1c(I)c(NC(C)=O)c(I)c(C(=O)O)c1I,maximum recommended daily dose (mmol/kg-bw/day),[3],0.761
Cc1onc(-c2c(F)cccc2Cl)c1C(=O)N[C@@H]1C(=O)N2[C@@H]1SC(C)(C)[C@@H]2C(=O)O,maximum recommended daily dose (mmol/kg-bw/day),[2],0.147
COc1ccc([C@@H]2Sc3ccccc3N(CCN(C)C)C(=O)[C@@H]2OC(C)=O)cc1,maximum recommended daily dose (mmol/kg-bw/day),TherapeuticCategory: antianginal,0.0193
OCCOCCN1CCN(C2=Nc3ccccc3Sc3ccccc32)CC1,maximum recommended daily dose (mmol/kg-bw/day),TherapeuticCategory: antipsychotic,0.0347
COc1ccc2[nH]cc(CCNC(C)=O)c2c1,maximum recommended daily dose (mmol/kg-bw/day),TherapeuticCategory: antioxidant,0.000359
O=NN(CCCl)C(=O)N[C@@H]1[C@@H](O)[C@H](O)[C@@H](CO)O[C@@H]1O,maximum recommended daily dose (mmol/kg-bw/day),[4],0.0129
Cc1cc(=O)n(-c2ccccc2)n1C (tested in a mixture with another compound),maximum recommended daily dose (mmol/kg-bw/day),[1],0.0626
CCO,maximum recommended daily dose (mmol/kg-bw/day),TherapeuticCategory: topical antiseptic,2.17
CC(N)C12CC3CC(CC(C3)C1)C2 (configuration not stated),maximum recommended daily dose (mmol/kg-bw/day),TherapeuticCategory: antiviral,0.0186
CCCCC(=O)OCC(=O)[C@@]1(O)[C@H](C)C[C@H]2[C@@H]3CCC4=CC(=O)C=C[C@]4(C)[C@@]3(F)[C@@H](O)C[C@@]21C,maximum recommended daily dose (mmol/kg-bw/day),"TherapeuticCategory: glucocorticoid, anti inflammatory",0.000315
C=C1CC[C@H](O)C/C1=C/C=C1\CCC[C@]2(C)[C@@H]([C@H](C)CCCC(C)(C)O)CC[C@@H]12,maximum recommended daily dose (mmol/kg-bw/day),TherapeuticCategory: calcium regulator,8.31e-06
C[C@]12CC[C@H]3[C@@H](CCC4=CC(=O)CC[C@@H]43)[C@@H]1CC[C@@H]2OC(=O)CCc1ccccc1,maximum recommended daily dose (mmol/kg-bw/day),TherapeuticCategory: anabolic steroid,0.00819
CC[C@@H](CO)NC(=O)[C@@H]1C=C2c3cccc4[nH]cc(c34)C[C@H]2N(C)C1,maximum recommended daily dose (mmol/kg-bw/day),TherapeuticCategory: oxytocic,3.92e-05
COc1ccc(C[C@@H](C)NC[C@H](O)c2ccc(O)c(NC=O)c2)cc1,maximum recommended daily dose (mmol/kg-bw/day),TherapeuticCategory: antiasthmatic,0.00775
Cc1cc(O)c2ccccc2c1O,maximum recommended daily dose (mmol/kg-bw/day),TherapeuticCategory: prothrombogenic vitamin,0.000959
CC(C)Cc1ccc(C(C)C(=O)O)cc1 (configuration not stated),maximum recommended daily dose (mmol/kg-bw/day),TherapeuticCategory: anti inflammatory,0.194
CC(C)C[C@H](N)C(=O)O,maximum recommended daily dose (mmol/kg-bw/day),TherapeuticCategory: nutrient,0.762
NCCNCCNCCN,maximum recommended daily dose (mmol/kg-bw/day),"TherapeuticCategory: chelating agent, treatmemt of Wilson's disease",0.228
O=C(O)CC(O)(CC(=O)O)C(=O)O,maximum recommended daily dose (mmol/kg-bw/day),TherapeuticCategory: bactericide,0.52
